Patent publication US20100190710A1, “IL-23 RECEPTOR ANTAGONISTS AND USES THEREOF” (Valorisation HSJ, Societe en Commandite, priority 2007, published 2010)
“Also recorded” adds a separate entry of the source. Peptide text beside a SMILES is read from it.

Legend:
IL-23 receptor [1] = biological target: T1, IL-23 receptor (Homo sapiens, UniProt Q5VWK5); test: IL-23-induced STAT3 phosphorylation in PMA-activated HL-60 monocytes (Western blot); assay type: cell-based; design: endogenous in cells; details: PMA-activated HL-60 human monocytes; peptide 1 μM, 30 min pre-incubation; IL-23 10 ng/ml, 15 min
T1 sequence (Q5VWK5 24-629): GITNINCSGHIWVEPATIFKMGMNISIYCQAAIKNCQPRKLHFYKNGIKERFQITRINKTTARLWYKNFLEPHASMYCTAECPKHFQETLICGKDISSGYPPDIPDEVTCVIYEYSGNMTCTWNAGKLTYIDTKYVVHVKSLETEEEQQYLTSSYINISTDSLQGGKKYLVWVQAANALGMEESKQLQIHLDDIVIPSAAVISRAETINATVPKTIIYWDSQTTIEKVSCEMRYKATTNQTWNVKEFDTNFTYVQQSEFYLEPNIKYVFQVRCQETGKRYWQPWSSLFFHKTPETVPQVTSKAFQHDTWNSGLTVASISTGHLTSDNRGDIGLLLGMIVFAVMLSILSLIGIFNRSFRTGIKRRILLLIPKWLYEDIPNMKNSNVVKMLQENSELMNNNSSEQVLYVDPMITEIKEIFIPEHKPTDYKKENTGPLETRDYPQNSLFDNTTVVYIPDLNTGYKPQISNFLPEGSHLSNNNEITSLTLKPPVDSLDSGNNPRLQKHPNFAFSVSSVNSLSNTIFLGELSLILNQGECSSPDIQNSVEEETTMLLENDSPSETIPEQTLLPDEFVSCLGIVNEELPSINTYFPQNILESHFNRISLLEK
Method: FIG. 2 is a graph showing the results of efficacy screening of peptides designed from the IL-23 receptor. HL-60 human monocytes were pre-incubated for 30 minutes with the particular peptides (1 μM) and stimulated for 15 minutes with IL-23 (10 ng/ml). Western Blot analysis of phosphorylated-STAT3 and total STAT3 was performed on cell lysates. Immunoblot densitometry was measured using ImagePro4+ software. […] FIGS. 3A and 3B are graphs showing inhibition of IL-23-induced STAT3 phosphorylation and TNFα generation. […] Western Blot analysis was performed on cell lysates, and immunoblot densitometry was measured using ImagePro4+ software. […] TNFα production was quantified by ELISA 24 hours after stimulation with IL-23 using the Quantikine ELISA Kit (R&D systems). […] D-peptides 2303, 2305, 2307 and 2309 (1 μM) inhibit IL-23-induced STAT3 phosphorylation in phorbol 12-myristate 13-acetate (PMA)-activated human monocytes (HL-60) (FIG. 2).

PMA-induced ear edema = test: PMA-induced ear edema, enteral (oral) administration; assay type: in vivo, rats; details: 20 mg/kg administered orally
Method: FIGS. 13A and 13B are graphs showing the effect of peptides APG-2305 (FIG. 13A) and APG-2309 (FIG. 13B) on PMA-induced inflammation. Intraperitoneal administration is abreviated “i.p.” and oral administration is abreviated “p.o.” Peptides APG-2305 and APG-2309 were also given by enteral administration to rats to verify their oral availability. The peptides at various concentrations were injected (twice a day; 200 μl) into the stomach with a gavage needle (Number 20) starting at day 2 of PMA treatment. On day 4 the total peptide dose was given as a bolus and animals were sacrificed 4-6 hours later. […] Scrambled peptide of APG-2305 (5 mg/kg/day) and intraperitoneal APG-2305 served as negative and positive controls respectively. APG-2309 was also injected enterally but inhibit PMA-induced ear edema only slightly at 20 mg/kg administered orally (FIG. 13B). APG-2309 is more hydrophobic than APG-2305.

MOG-induced EAE = test: Experimental Autoimmune Encephalitis (EAE) model; assay type: in vivo, C57/BL6 mice; details: for clinical signs of EAE: intraperitoneal
IL-12R = biological target: T2, IL-12R (Homo sapiens, UniProt P42701+Q99665); test: IL-12-induced STAT4 phosphorylation (selectivity, Western blot); assay type: cell-based; details: even at high concentrations, i.e., 10 μM
T2 construct: endogenous in cells
Method: FIGS. 8A and 8B are a series of graphs and Western Blots showing the specificity and selectivity of IL-23R binding peptides. […] [^125I]-2305 binding was performed in phosphate buffer saline pH=7.4 on PMA-activated HL-60 cells. [^125I]-labelled and unlabelled peptide 2305 was incubated with cells for 1 hour for equilibration. Cells were then washed four times and bound radioactivity measured using a Cobra II Autogamma gamma counter (Packard). Non-activated HL-60 cells, which express little IL-23R, were used as a negative control (shown on Western Blot of IL-23 receptor). A robust increase in IL-23R expression by PMA was observed on duplicate Western blots. Peptide 2305 is easily labelled with [^125I] on its tyrosine; in absence of tyrosine (e.g., peptide 2309) [^14C]-labelled amino acids can be used. […] IL-12R is very homologous to IL-23R. Western Blots of phosphorylated STAT4 and total STAT4 were performed on cell lysates.

IL-23 receptor [2] = biological target: T1, IL-23 receptor; test: IL-23-induced TNFα production in PMA-activated HL-60 monocytes (ELISA); assay type: cell-based; design: endogenous in cells; details: IL-23 10 ng/ml, ELISA 24 hours after stimulation, read-out: Emax, inhibition of IL-23-induced TNF formation
Method: FIGS. 3A and 3B are graphs showing inhibition of IL-23-induced STAT3 phosphorylation and TNFα generation. […] Western Blot analysis was performed on cell lysates, and immunoblot densitometry was measured using ImagePro4+ software. […] TNFα production was quantified by ELISA 24 hours after stimulation with IL-23 using the Quantikine ELISA Kit (R&D systems).
D-peptides 2303, 2305, 2307 and 2309 (1 μM) inhibit IL-23-induced STAT3 phosphorylation in phorbol 12-myristate 13-acetate (PMA)-activated human monocytes (HL-60) (FIG. 2).

[3] = three times a day (3 mg/kg/day), Sudan black stain, listed as APG-2309

T2 sequence (Q99665 24-862, other chains not shown): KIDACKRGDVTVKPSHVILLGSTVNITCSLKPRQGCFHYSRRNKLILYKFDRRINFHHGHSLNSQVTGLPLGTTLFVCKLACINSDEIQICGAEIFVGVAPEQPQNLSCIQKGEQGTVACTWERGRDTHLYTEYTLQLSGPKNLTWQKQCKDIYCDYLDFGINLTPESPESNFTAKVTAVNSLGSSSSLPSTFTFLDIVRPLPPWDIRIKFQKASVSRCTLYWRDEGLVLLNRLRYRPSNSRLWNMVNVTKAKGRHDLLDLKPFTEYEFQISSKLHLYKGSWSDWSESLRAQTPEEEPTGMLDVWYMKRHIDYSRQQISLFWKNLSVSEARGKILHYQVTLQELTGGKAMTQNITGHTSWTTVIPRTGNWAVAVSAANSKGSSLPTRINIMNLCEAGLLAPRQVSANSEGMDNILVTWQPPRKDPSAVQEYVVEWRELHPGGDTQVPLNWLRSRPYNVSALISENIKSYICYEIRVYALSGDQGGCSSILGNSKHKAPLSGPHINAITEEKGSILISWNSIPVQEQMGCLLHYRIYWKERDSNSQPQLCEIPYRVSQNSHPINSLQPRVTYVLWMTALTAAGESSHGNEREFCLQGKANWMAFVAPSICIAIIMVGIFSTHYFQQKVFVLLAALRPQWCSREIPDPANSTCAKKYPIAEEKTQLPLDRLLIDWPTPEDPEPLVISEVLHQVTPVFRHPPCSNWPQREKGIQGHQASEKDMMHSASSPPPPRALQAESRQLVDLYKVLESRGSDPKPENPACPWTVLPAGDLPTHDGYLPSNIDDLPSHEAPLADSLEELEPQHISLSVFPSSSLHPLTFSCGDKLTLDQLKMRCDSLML

Question: `CSCC[C@@H](N)C(=O)N[C@H](CCC(=O)O)C(=O)N[C@H](CCC(=O)O)C(=O)N[C@H](CO)C(=O)N[C@H](CCCCN)C(=O)N[C@H](CCC(N)=O)C(=O)N[C@H](CC(C)C)C(=O)N[C@H](CCC(N)=O)C(=O)N[C@H](CC(C)C)C(=O)O` [Peptide 2309, MEESKQLQL] (HELM PEPTIDE1{[dM].[dE].[dE].[dS].[dK].[dQ].[dL].[dQ].[dL]}$$$$V2.0; N-terminus and C-terminus assumed) was tested. Which “effect on IL-23-induced STAT3 phosphorylation” value (IL-23 receptor [1]) did it give?
Answer: Its value is “demonstrable efficacy; also recorded: inhibit; also recorded: remained capable of inhibiting”.

Question: What about the PMA-induced ear edema (PMA-induced ear edema) of the same compound?
Answer: Its PMA-induced ear edema is “only slightly”.

Question: What about the “EAE-induced demyelination of the cerebellum” value (MOG-induced EAE; [3]) of the same compound?
Answer: The value was “protects against EAE-induced demyelination of the cerebellum; also recorded: totally prevents”.

Question: What about the “EAE-induced demyelination of the spinal cord” value (MOG-induced EAE; [3]) of the same compound?
Answer: The value was “protects against EAE-induced demyelination of the spinal cord; also recorded: totally prevents”.

Question: What about the “clinical signs of EAE” value (MOG-induced EAE; treatment three times a day) of the same compound?
Answer: The value was “completely abolished the induction of the disease symptoms”.

Question: What about the “clinical signs of EAE” value (MOG-induced EAE; twice a day at 2 mg/kg/day) of the same compound?
Answer: The value was “retarded the appearance of the clinical signs of EAE”.

Question: What about the “effect on IL-12-induced STAT4 phosphorylation” value (IL-12R) of the same compound?
Answer: Its value is “does not inhibit; also recorded: inability”.

Question: What about the Emax (IL-23 receptor [2]) of the same compound?
Answer: The Emax was ~80%.
